Experimental data reported in the RepoRT retention time repository (doi:10.1021/ac101825k).

Assay: RP, Waters Symmetry C18, 100 × 2.1 mm; A: water + 0.1% formic acid, pH 3; B: acetonitrile + 0.1% formic acid, pH 3; gradient (min/%B) 0/5 24/95 29/95 29.1/5
Settings: stereoisomer not certain

| LC retention time | Compound |
| --- | --- |
| 11.2 min | CCC1OC(=O)C(C)C(OC2CC(C)(OC)C(O)C(C)O2)C(C)C(OC2OC(C)CC(N(C)C)C2O)C(C)(O)CC(C)C(=O)C(C)C(O)C1(C)O (stereo unspecified) [Erythromycin] |
| 10.5 min | CC1OC(OC2C(Oc3cc(O)c4c(c3)OC(c3ccc(O)cc3)CC4=O)OC(CO)C(O)C2O)C(O)C(O)C1O (stereo unspecified) [Naringin] |
| 2.27 min | NC(Cc1ccccc1)C(=O)O (stereo unspecified) [Phenylalanine] |
| 6.46 min | COc1cc(C=CC(=O)OCC[N+](C)(C)C)cc(OC)c1O [Sinapine] |
| 12.3 min | COc1cc(C=CC(=O)O)cc(OC)c1OC [3,4,5-Trimethoxycinnamic_acid] |
| 14.5 min | COc1c2ccoc2cc2oc(=O)ccc12 [Bergapten] |
| 13.3 min | O=c1c(O)c(-c2ccc(O)cc2)oc2cc(O)cc(O)c12 [Kaempferol] |
| 18.5 min | COc1cc(O)c(CC=C(C)C)c(O)c1C(=O)C=Cc1ccc(O)cc1 [Xanthohumol] |
| 7.82 min | Oc1cc(O)c2c(c1)OC(c1ccc(O)c(O)c1)C(O)C2 (single isomer, unassigned; (-)) [(-)-Epicatechin] |
| 13.1 min | O=c1c(-c2ccc(O)cc2)coc2cc(O)cc(O)c12 [Genistein] |
| 16.1 min | COc1ccc(-c2coc3cc(O)cc(O)c3c2=O)cc1 [Biochanin_A] |
| 11.1 min | O=C(CCc1ccc(O)cc1)c1c(O)cc(O)cc1OC1OC(CO)C(O)C(O)C1O (stereo unspecified) [Phlorizin] |
| 15.1 min | COC1C=COC2(C)Oc3c(C)c(O)c4c(O)c(c(C=NN5CCN(C)CC5)c(O)c4c3C2=O)NC(=O)C(C)=CC=CC(C)C(O)C(C)C(O)C(C)C(OC(C)=O)C1C (stereo unspecified) [Rifampicin] |
| 9.72 min | CC1OC(OCC2OC(Oc3c(-c4ccc(O)c(O)c4)oc4cc(O)cc(O)c4c3=O)C(O)C(O)C2O)C(O)C(O)C1O (stereo unspecified) [Rutin] |
| 14.2 min | O=c1cc(-c2ccc(O)c(-c3c(O)cc(O)c4c(=O)cc(-c5ccc(O)cc5)oc34)c2)oc2cc(O)cc(O)c12 [Amentoflavone] |
| 10.1 min | COc1ccccc1C(=O)O [o-Anisic acid] |

| LC retention time | Compound |
| --- | --- |
| 8.77 min | Cc1cc(=O)oc2cc(OC3OC(C(=O)O)C(O)C(O)C3O)ccc12 (stereo unspecified) [4-Methylumbelliferylglucuronide] |
| 10.5 min | O=C(O)c1c[nH]c2ccccc12 [Indole-3-carboxylic_acid] |
| 1.52 min | Nc1ncnc2c1ncn2C1OC(CO)C(O)C1O (stereo unspecified) [Adenosine] |
| 10 min | COc1ccc2c(c1OC)C(=O)OC2C1c2c(cc3c(c2OC)OCO3)CCN1C (stereo unspecified) [S,R-Noscapine] |
| 9.9 min | COc1ccc2cc3[n+](cc2c1OC)CCc1cc2c(cc1-3)OCO2 [Berberine] |
| 9.58 min | CC1OC(OC2C(c3c(O)cc(O)c4c(=O)cc(-c5ccc(O)cc5)oc34)OC(CO)C(O)C2O)C(O)C(O)C1O (stereo unspecified) [Vitexin-2''-O-rhamnoside] |
| 1.2 min | NC(=O)c1ccc[n+](C2OC(COP(=O)(O)OP(=O)(O)OCC3OC(n4cnc5c(N)ncnc54)C(O)C3O)C(O)C2O)c1 (stereo unspecified) [Nicotinamide_dinucleotide] |
| 10.9 min | Cc1cc2nc3cc(C)c(N)cc3[n+](-c3ccccc3)c2cc1N [Safranin] |
| 11.5 min | Oc1ccc(C=Cc2cc(O)cc(O)c2)cc1 [Resveratrol] |
| 12.6 min | COC(=O)C1C2CC3c4[nH]c5cc(OC)ccc5c4CCN3CC2CC(OC(=O)c2cc(OC)c(OC)c(OC)c2)C1OC (stereo unspecified) [Reserpine] |
| 6.57 min | c1coc(CNc2ncnc3nc[nH]c23)c1 [Kinetin] |
| 4.07 min | NC(Cc1c[nH]c2ccccc12)C(=O)O (stereo unspecified) [Tryptophan] |
| 12.1 min | CC(C)C(NC(=O)Cc1c[nH]c2ccccc12)C(=O)O (stereo unspecified) [IAA-Val] |
| 12.2 min | O=c1c(O)c(-c2ccc(O)c(O)c2)oc2cc(O)cc(O)c12 [Quercetin] |
| 7.2 min | CN1CCc2cccc3c2C1Cc1ccc(O)c(O)c1-3 (stereo unspecified) [Apomorphine] |

| Compound | LC retention time |
| --- | --- |
| CN1Cc2c(ccc3c2OCO3)C2C(O)Cc3cc4c(cc3C21)OCO4 (stereo unspecified) [Chelidonine] | 9.5 min |
| C=C(C)C1Cc2c(ccc3c2OC2COc4cc(OC)c(OC)cc4C2C3=O)O1 (stereo unspecified) [Rotenone] | 18 min |
| Oc1ccc(CC2NCCc3cc(O)c(O)cc32)cc1O (stereo unspecified) [Tetrahydropapaveroline] | 1.14 min |
| C=CC1CN2CCC1CC2C(O)c1ccnc2ccccc12 (stereo unspecified) [Cinchonine] | 3.47 min |
| Cc1nccc2c1[nH]c1ccccc12 [Harmane] | 7.81 min |
| NCCc1ccc(O)cc1 [Tyramine] | 8.45 min |
| CC1NCCc2cc(O)c(O)cc21 (stereo unspecified) [Salsolinol] | 1.08 min |
| CCC1CN2CCc3cc(OC)c(OC)cc3C2CC1CC1NCCc2cc(OC)c(OC)cc21 (stereo unspecified) [Emetine] | 7.62 min |
| CN1CCc2cc3c(cc2C1C1OC(=O)c2c1ccc1c2OCO1)OCO3 (stereo unspecified) [Bicuculline] | 8.51 min |
| COc1ccc(CC2c3cc(OC)c(OC)cc3CCN2C)cc1OC (stereo unspecified) [Laudanosine] | 8.39 min |
